Data reported in ChEMBL document CHEMBL4251715, “Hepatoprotective Dibenzocyclooctadiene and Tetrahydrobenzocyclooctabenzofuranone Lignans from Kadsura longipedunculata” (2018).

Test system: HepG2
Assay: Hepatoprotective activity against APAP-induced toxicity in human HepG2 cells assessed as cell survival rate at 10 uM after 48 hrs by MTT assay relative to control
Type: functional
Conditions: HepG2, 48 h, read-out: Survival

Row | Compound | viability at 10 µM
1 | COC1=C(OC)C(=O)[C@]23COc4c5c(cc(c42)[C@H](OC(=O)c2ccccc2)[C@H](C)[C@](C)(O)CC3=C1)OCO5 | 52.2%
2 | COC(=O)c1cc(OC)c2c(c1-c1c(CO)cc(OC)c3c1OCO3)OCO2 [BICYCLOL] | 49%
3 | COC1=C(OC)C(=O)[C@]23COc4c5c(cc(c42)[C@H](OC(C)=O)[C@H](C)[C@H](C)CC3=C1)OCO5 | 50.2%
